Results reported in ChEMBL document CHEMBL3991601, “The target landscape of clinical kinase drugs” (Science, 2017).
Calls of active or inactive are those of the source. For most assays here, no stated cut-off is given here; in the data, actives have a measured Kd and inactives only a lower limit.

How the values were obtained:
[1] = target: Serine/threonine-protein kinase SIK2 (Homo sapiens, UniProt Q9H0K1)
[2] = target: Casein kinase II subunit alpha' (Homo sapiens, UniProt P19784)
[3] = target: T1, Exosome RNA helicase MTR4 (Homo sapiens, UniProt P42285)
T1 sequence (P42285 whole entry): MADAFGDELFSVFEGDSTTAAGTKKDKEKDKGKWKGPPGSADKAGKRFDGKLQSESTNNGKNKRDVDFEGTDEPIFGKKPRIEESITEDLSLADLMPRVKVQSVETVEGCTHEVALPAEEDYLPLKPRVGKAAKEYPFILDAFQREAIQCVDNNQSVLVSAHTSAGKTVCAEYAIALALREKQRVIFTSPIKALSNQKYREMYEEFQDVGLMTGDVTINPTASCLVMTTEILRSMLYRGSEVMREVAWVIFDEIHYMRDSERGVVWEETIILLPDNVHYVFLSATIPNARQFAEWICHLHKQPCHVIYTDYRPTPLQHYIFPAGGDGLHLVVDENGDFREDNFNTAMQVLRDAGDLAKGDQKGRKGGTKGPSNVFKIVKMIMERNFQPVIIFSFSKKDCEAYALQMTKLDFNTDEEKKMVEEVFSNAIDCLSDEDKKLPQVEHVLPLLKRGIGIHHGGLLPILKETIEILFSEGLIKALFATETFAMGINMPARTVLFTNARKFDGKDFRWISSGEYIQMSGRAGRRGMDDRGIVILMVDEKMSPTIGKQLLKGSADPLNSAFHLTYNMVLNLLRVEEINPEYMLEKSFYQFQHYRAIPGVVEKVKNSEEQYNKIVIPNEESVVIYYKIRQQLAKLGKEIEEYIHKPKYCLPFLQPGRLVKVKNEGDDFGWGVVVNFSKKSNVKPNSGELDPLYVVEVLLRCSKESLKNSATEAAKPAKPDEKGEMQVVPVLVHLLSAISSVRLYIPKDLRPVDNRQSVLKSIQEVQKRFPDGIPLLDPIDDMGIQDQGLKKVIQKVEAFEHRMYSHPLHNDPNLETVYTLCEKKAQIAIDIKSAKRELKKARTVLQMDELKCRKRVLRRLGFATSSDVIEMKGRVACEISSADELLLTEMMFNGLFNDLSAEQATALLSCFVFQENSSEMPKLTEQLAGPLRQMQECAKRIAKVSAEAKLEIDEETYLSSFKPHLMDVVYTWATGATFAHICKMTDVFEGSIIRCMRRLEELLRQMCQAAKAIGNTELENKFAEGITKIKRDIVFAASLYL

[4] = target: Insulin receptor (Homo sapiens, UniProt P06213)
Sequence of Insulin receptor (P06213 28-758 limits assumed): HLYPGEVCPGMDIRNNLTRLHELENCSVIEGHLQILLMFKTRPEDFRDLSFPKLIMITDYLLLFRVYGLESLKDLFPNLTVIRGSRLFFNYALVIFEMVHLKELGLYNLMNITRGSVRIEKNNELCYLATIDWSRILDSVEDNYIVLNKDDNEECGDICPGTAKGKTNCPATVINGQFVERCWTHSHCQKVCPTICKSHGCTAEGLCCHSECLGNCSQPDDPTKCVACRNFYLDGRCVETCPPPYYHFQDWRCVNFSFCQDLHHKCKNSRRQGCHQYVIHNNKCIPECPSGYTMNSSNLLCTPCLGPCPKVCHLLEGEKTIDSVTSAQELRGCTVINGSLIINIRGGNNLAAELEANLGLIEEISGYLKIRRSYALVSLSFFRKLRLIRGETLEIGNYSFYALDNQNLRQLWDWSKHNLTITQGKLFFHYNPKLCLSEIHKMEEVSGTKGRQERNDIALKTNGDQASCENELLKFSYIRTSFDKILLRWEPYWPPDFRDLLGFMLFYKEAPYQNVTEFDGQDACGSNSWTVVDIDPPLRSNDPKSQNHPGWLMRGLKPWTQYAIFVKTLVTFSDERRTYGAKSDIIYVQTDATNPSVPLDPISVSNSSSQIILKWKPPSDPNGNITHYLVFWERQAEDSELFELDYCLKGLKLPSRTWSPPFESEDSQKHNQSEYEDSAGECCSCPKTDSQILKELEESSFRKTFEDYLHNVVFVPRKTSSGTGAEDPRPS
Sequence of Insulin receptor (P06213 763-1382 limits assumed): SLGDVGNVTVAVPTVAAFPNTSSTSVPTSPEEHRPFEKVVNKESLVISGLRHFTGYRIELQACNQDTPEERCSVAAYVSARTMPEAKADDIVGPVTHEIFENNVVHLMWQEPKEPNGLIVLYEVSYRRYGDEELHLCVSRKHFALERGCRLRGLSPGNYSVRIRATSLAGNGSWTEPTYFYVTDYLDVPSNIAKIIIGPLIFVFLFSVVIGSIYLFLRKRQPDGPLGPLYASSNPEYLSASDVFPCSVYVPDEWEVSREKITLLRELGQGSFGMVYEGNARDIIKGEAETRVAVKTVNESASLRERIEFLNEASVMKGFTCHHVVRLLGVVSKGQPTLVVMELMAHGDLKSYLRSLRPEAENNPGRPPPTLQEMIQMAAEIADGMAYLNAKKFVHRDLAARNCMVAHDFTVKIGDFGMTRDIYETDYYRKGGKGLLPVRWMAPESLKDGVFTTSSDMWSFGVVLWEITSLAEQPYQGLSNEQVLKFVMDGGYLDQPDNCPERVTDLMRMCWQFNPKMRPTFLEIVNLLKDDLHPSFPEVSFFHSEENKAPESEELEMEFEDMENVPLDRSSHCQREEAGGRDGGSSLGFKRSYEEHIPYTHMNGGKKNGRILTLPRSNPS

[5] = target: LIM domain kinase 1 (Homo sapiens, UniProt P53667)
Sequence of LIM domain kinase 1 (P53667 whole entry, the tested form may be a part): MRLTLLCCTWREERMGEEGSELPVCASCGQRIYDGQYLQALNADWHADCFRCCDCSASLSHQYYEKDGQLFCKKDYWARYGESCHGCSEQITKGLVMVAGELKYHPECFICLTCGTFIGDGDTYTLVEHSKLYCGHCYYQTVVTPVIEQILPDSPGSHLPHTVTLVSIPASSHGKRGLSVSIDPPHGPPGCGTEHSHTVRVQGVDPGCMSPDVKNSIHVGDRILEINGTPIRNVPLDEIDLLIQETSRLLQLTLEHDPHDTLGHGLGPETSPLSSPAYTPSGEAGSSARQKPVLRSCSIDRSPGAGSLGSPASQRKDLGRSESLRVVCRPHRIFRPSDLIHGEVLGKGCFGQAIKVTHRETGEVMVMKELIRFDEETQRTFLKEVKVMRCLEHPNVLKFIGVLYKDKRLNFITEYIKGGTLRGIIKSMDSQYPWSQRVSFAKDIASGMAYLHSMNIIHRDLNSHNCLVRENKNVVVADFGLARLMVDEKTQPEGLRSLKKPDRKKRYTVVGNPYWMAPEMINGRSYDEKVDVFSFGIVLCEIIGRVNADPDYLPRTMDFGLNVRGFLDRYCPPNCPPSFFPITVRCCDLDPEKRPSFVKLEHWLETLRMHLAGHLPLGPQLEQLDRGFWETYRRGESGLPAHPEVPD

[6] = target: cAMP-dependent protein kinase catalytic subunit gamma (Homo sapiens, UniProt P22612)
Sequence of cAMP-dependent protein kinase catalytic subunit gamma (P22612 whole entry): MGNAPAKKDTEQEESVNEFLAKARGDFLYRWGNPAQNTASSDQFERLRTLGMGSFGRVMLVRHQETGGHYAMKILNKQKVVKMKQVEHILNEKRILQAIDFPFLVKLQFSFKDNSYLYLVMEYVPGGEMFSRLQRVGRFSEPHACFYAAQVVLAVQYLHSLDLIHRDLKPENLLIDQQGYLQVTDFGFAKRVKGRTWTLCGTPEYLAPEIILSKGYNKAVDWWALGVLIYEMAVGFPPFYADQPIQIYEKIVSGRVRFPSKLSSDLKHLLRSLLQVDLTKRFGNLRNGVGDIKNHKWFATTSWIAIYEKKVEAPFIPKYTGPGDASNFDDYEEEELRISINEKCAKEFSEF

[7] = target: AP2-associated protein kinase 1 (Homo sapiens, UniProt Q2M2I8)
Sequence of AP2-associated protein kinase 1 (Q2M2I8 whole entry): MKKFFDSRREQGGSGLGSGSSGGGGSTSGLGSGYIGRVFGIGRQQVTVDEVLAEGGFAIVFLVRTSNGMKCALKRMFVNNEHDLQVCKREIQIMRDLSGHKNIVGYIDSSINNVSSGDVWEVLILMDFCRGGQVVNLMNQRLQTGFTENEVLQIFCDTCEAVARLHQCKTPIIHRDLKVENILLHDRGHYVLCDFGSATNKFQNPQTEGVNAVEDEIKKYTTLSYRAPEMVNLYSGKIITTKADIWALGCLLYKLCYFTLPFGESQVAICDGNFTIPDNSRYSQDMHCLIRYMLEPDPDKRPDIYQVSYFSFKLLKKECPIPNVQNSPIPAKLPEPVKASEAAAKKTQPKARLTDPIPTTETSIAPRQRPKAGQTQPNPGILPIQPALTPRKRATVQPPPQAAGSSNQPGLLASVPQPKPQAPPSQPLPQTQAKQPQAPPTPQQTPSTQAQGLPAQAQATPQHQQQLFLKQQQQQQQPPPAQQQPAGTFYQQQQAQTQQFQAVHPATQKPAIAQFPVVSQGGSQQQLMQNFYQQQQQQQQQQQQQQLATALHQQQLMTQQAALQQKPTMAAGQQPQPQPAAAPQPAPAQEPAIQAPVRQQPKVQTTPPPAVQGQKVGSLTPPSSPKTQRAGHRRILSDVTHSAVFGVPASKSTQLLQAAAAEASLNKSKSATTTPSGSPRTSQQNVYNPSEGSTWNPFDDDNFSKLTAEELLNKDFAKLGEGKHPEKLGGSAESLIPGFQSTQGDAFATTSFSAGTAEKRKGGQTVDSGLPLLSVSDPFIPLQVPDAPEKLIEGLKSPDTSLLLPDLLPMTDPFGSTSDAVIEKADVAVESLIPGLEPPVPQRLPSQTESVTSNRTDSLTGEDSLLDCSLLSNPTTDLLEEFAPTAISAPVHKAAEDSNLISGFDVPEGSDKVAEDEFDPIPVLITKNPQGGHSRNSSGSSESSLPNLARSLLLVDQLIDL

[8] = target: Cyclin-dependent kinase 12 (Homo sapiens, UniProt Q9NYV4)
[9] = target: TGF-beta receptor type-2 (Homo sapiens, UniProt P37173)
Sequence of TGF-beta receptor type-2 (P37173 whole entry): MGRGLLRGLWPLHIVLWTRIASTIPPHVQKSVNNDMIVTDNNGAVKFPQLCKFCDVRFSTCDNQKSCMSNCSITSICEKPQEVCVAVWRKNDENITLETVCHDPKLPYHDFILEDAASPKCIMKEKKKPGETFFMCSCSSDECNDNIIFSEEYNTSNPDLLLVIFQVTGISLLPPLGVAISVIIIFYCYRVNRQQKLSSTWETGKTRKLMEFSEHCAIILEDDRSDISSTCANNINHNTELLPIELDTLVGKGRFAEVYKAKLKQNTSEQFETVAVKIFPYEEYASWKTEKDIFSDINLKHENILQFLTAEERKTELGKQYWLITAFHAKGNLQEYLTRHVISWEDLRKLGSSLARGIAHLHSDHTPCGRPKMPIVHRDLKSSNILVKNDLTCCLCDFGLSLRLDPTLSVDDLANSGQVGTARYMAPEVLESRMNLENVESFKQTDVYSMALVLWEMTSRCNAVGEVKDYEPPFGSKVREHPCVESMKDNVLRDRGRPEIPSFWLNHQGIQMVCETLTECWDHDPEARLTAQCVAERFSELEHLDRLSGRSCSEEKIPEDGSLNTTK

[10] = target: T2, Membrane-associated tyrosine- and threonine-specific cdc2-inhibitory kinase (Homo sapiens, UniProt Q99640)
T2 sequence (Q99640 whole entry): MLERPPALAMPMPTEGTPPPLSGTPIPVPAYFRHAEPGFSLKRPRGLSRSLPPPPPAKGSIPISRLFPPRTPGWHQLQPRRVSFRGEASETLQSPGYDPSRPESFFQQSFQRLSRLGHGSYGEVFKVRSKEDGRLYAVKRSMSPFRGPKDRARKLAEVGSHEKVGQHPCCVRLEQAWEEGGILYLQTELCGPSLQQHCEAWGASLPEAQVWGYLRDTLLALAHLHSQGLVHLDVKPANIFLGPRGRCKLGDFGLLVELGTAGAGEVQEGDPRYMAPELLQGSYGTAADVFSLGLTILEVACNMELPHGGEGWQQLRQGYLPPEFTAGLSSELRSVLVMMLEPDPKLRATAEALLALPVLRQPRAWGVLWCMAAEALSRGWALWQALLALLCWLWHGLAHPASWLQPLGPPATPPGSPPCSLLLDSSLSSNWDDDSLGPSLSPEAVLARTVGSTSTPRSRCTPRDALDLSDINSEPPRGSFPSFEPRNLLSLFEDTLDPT

[11] = target: ATP-dependent RNA helicase DDX3X (Homo sapiens, UniProt O00571)
[12] = target: Mitogen-activated protein kinase 1 (Homo sapiens, UniProt P28482)
[13] = target: Tyrosine-protein kinase BTK (Homo sapiens, UniProt Q06187)
Sequence of Tyrosine-protein kinase BTK (Q06187 whole entry): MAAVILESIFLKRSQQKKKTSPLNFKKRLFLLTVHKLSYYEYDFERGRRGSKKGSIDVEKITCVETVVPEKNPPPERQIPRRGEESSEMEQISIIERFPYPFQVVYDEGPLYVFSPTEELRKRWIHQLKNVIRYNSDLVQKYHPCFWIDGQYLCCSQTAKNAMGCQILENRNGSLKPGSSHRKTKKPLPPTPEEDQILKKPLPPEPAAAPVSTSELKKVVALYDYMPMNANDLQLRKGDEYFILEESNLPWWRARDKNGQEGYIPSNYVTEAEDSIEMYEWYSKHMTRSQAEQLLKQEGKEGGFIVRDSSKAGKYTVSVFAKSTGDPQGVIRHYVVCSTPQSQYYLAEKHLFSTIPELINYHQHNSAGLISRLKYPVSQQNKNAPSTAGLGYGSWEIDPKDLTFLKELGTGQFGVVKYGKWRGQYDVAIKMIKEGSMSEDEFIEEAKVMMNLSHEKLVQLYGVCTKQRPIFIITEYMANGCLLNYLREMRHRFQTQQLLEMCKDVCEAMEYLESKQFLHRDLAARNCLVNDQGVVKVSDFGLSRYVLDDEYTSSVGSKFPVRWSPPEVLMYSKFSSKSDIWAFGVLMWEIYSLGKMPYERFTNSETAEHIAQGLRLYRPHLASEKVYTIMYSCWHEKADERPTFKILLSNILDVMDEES

Sequence of Casein kinase II subunit alpha' (P19784 whole entry): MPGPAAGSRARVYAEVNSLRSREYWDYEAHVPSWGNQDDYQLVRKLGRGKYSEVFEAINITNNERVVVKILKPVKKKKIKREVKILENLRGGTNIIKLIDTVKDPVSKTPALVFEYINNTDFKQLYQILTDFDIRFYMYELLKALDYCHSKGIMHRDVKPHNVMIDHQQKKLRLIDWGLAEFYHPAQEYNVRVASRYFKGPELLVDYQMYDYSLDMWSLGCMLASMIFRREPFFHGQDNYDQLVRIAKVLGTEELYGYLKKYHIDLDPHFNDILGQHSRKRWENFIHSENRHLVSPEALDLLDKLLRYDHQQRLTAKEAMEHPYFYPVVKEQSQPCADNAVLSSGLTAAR

| Compound | Kd [1] | Kd [2] | Kd [3] | Kd [4] | Kd [5] | Kd [6] | Kd [7] | Kd [8] | Kd [9] | Kd [10] | Kd [11] | Kd [12] | Kd [13] |
| --- | --- | --- | --- | --- | --- | --- | --- | --- | --- | --- | --- | --- | --- |
| Cn1cc(-c2cnc3ccc4ccc(CS(=O)(=O)NCc5ccccn5)cc4c(=O)c3c2)cn1 [MK-8033] | > 30 µM (inactive) | > 30 µM (inactive) | > 30 µM (inactive) | > 30 µM (inactive) | > 30 µM (inactive) | > 30 µM (inactive) | > 30 µM (inactive) | > 30 µM (inactive) | > 30 µM (inactive) | > 30 µM (inactive) | > 30 µM (inactive) | > 30 µM (inactive) | > 30 µM (inactive) |
| CC(=O)c1cnc2ccc(-c3cc(Cl)c(O)c(Cl)c3)nc2c1N[C@H]1CC[C@H](CN(C)C)CC1 | 0.24 µM (active) | 0.01 µM (active) | > 30 µM (inactive) | > 30 µM (inactive) | > 30 µM (inactive) | > 30 µM (inactive) |  | > 30 µM (inactive) | > 30 µM (inactive) | > 30 µM (inactive) | > 30 µM (inactive) | > 30 µM (inactive) | 0.361 µM (active) |
| Cc1cc(Nc2ncc(Cl)c(Nc3ccccc3S(=O)(=O)C(C)C)n2)c(OC(C)C)cc1C1CCNCC1 [CERITINIB] | > 30 µM (inactive) | > 30 µM (inactive) | > 30 µM (inactive) |  | > 30 µM (inactive) | > 30 µM (inactive) | > 30 µM (inactive) | > 30 µM (inactive) | > 30 µM (inactive) | > 30 µM (inactive) | > 30 µM (inactive) | > 30 µM (inactive) | > 30 µM (inactive) |
| Cc1nc2cc(-n3ncc(C(=O)c4cc5ccccc5[nH]4)c3N)ccc2[nH]1 [FGFR INHIBITOR DEBIO 1347] | > 30 µM (inactive) | > 30 µM (inactive) | > 30 µM (inactive) | > 30 µM (inactive) | > 30 µM (inactive) |  | > 30 µM (inactive) | > 30 µM (inactive) | > 30 µM (inactive) | > 30 µM (inactive) | > 30 µM (inactive) | > 30 µM (inactive) | > 30 µM (inactive) |
| CCNC(=O)C#Cc1ccc2c(c1)NC(=O)/C2=C(\Nc1ccc(CN(C)C)cc1)c1ccccc1 | 3.51 µM (active) | > 30 µM (inactive) | > 30 µM (inactive) | > 30 µM (inactive) | > 30 µM (inactive) | > 30 µM (inactive) | > 30 µM (inactive) | > 30 µM (inactive) | > 30 µM (inactive) | > 30 µM (inactive) | > 30 µM (inactive) | > 30 µM (inactive) | 0.588 µM (active) |
| CC(C)c1cc(CNc2nc(Nc3cc(C4CC4)[nH]n3)cc(N3CCN(C)CC3)n2)on1 [XL-228] | 1.8 µM (active) | 2.44 µM (active) | > 30 µM (inactive) | 0.144 µM (active) | 2.07 µM (active) | > 30 µM (inactive) | 0.138 µM (active) | > 30 µM (inactive) | > 30 µM (inactive) | > 30 µM (inactive) | > 30 µM (inactive) | > 30 µM (inactive) | 15.8 µM |
| COc1cc(Nc2ncc3c(n2)-c2ccc(Cl)cc2C(c2c(F)cccc2OC)=NC3)ccc1C(=O)O [ALISERTIB] | > 30 µM (inactive) |  | > 30 µM (inactive) |  |  | > 30 µM (inactive) | > 30 µM (inactive) | > 30 µM (inactive) | > 30 µM (inactive) | > 30 µM (inactive) | > 30 µM (inactive) |  |  |
| O=C1NC(=O)[C@@H](c2cn3c4c(cccc24)CCC3)[C@@H]1c1c[nH]c2ccccc12 [TIVANTINIB] | > 30 µM (inactive) | > 30 µM (inactive) | > 30 µM (inactive) | > 30 µM (inactive) | > 30 µM (inactive) |  | > 30 µM (inactive) | > 30 µM (inactive) | > 30 µM (inactive) | > 30 µM (inactive) | > 30 µM (inactive) | > 30 µM (inactive) | > 30 µM (inactive) |
| Cc1nc(NC(=O)N2CCC[C@H]2C(N)=O)sc1-c1ccnc(C(C)(C)C(F)(F)F)c1 [ALPELISIB] | > 30 µM (inactive) | > 30 µM (inactive) | > 30 µM (inactive) | > 30 µM (inactive) | > 30 µM (inactive) | 1.99 µM (active) | > 30 µM (inactive) | > 30 µM (inactive) |  | > 30 µM (inactive) | > 30 µM (inactive) | > 30 µM (inactive) | > 30 µM (inactive) |
| CNC(=O)c1nn(C)c2c1C(C)(C)Cc1cnc(Nc3ccc(N4CCN(C)CC4)cc3)nc1-2 [MILCICLIB] | 0.11 µM (active) | 3.5 µM (active) | > 30 µM (inactive) | > 30 µM (inactive) | > 30 µM (inactive) | > 30 µM (inactive) | 7.41 µM (active) | > 30 µM (inactive) | > 30 µM (inactive) | > 30 µM (inactive) | > 30 µM (inactive) | > 30 µM (inactive) | > 30 µM (inactive) |
| C[C@H]1CNCCCN1S(=O)(=O)c1cccc2cncc(F)c12 | > 30 µM (inactive) | > 30 µM (inactive) | > 30 µM (inactive) | > 30 µM (inactive) | > 30 µM (inactive) | > 30 µM (inactive) | > 30 µM (inactive) | > 30 µM (inactive) |  | > 30 µM (inactive) | > 30 µM (inactive) | > 30 µM (inactive) | > 30 µM (inactive) |
| C[C@@H](Oc1cc(C(=O)Nc2ccc(C(=O)N3CCN(C)CC3)cc2)nnc1N)c1c(Cl)ccc(F)c1Cl | > 30 µM (inactive) | > 30 µM (inactive) | > 30 µM (inactive) | > 30 µM (inactive) | > 30 µM (inactive) | > 30 µM (inactive) | 22.2 µM (active) | > 30 µM (inactive) | > 30 µM (inactive) | > 30 µM (inactive) | > 30 µM (inactive) | > 30 µM (inactive) | > 30 µM (inactive) |
| Cc1cccc(-c2nn3c(c2-c2ccnc4ccc(C(N)=O)cc24)CCC3)n1 [GALUNISERTIB] | > 30 µM (inactive) | > 30 µM (inactive) | > 30 µM (inactive) | > 30 µM (inactive) | > 30 µM (inactive) | > 30 µM (inactive) | > 30 µM (inactive) | > 30 µM (inactive) | > 30 µM (inactive) | > 30 µM (inactive) | > 30 µM (inactive) | > 30 µM (inactive) | > 30 µM (inactive) |
| Cc1nc(Nc2n[nH]c3c2CN(C(=O)N[C@H](CN(C)C)c2ccccc2)C3(C)C)c2sccc2n1 [PF-03758309] | 1.27 µM (active) | > 30 µM (inactive) | > 30 µM (inactive) | > 30 µM (inactive) | > 30 µM (inactive) | 0.066 µM (active) | 3.04 µM (active) | > 30 µM (inactive) | > 30 µM (inactive) | > 30 µM (inactive) | > 30 µM (inactive) | 1.96 µM (active) | 1.23 µM |
| O=C(NOCCO)c1cc(CN2OCCCC2=O)c(F)c(F)c1Nc1ccc(I)cc1F [RO-4987655] |  |  | > 30 µM (inactive) |  |  | > 30 µM (inactive) |  | > 30 µM (inactive) |  |  | > 30 µM (inactive) |  |  |
